The text below walks through data of US10221139B2, “Inhibitors of histone demethylases” (Gilead Sciences, Inc., priority 2012, dated 2019).

A word on the IC50: it is the concentration that gives 50% inhibition. A low value points to inhibition by little substance.

Type in all cases: biochemical
In experiment [1] the target is T1, PLU1 (KDM5B) (Homo sapiens, UniProt Q9UGL1).
T1 construct: 1-809; host or cells: E. coli
T1 sequence (Q9UGL1 1-809): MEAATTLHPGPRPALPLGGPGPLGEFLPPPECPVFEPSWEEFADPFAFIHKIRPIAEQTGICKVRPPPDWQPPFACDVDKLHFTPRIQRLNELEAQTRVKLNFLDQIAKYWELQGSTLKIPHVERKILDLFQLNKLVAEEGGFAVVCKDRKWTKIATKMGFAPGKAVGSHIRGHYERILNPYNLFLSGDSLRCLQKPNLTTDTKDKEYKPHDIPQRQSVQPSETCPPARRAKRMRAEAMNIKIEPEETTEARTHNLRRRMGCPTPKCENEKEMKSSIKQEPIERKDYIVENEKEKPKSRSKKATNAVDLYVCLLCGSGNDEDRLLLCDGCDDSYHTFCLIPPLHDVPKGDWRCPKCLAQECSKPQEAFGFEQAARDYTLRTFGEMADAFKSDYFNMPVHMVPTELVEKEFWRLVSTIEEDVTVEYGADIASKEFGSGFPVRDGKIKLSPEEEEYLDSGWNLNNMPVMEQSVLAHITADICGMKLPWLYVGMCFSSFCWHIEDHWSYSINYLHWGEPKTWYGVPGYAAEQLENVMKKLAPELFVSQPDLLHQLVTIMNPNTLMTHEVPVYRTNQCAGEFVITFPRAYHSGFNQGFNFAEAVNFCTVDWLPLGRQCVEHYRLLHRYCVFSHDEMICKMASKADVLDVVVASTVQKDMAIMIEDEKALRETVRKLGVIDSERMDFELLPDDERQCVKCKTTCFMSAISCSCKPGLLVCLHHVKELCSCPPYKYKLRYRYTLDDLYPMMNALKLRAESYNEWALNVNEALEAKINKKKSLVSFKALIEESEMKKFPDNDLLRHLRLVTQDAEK
The experiment is described as follows: Histone lysine demethylase AlphaLISA assay, PLU1. The note with it: substrate H3K4M3B. How it is done: (§1) Example 2: Histone Lysine Demethylase AlphaLISA Assays for IC50 Value Determination
(§2) Assays are performed analogously to the protocol described by Perkin Elmer (Roy et al. Perkin Elmer Technical Note: AlphaLISA #12, April 2011).
(§3) Enzymes are dissolved in enzyme buffer and incubated for 10 min before 5 μL is added to 5 μL 3% DMSO solutions of compounds in enzyme buffer. Incubated for another 10 minutes, before 5 μL substrate solution is added and the reaction mixture is incubated at room temperature for the given period. 10 μL acceptor beads, suspended at given dilutions in Epigenetic Buffer (Perkin Elmer AL008) from stock, are added and the suspension is incubated 60 minutes in the dark at room temperature, before 10 μL suspension (at the given dilutions in Epigenetic Buffer) of streptavidin donor beads (Perkin Elmer 6760002) in Epigenetic Buffer is added. After incubation at room temperature in the dark the plates are read. Reaction conditions are seen in Table 2b.

The target of experiment [2] is T2, GASC1 (KDM4C, JMJD2C) (Homo sapiens, UniProt Q9H3R0).
T2 construct: 1-349; host or cells: E. coli
T2 sequence (Q9H3R0 1-349): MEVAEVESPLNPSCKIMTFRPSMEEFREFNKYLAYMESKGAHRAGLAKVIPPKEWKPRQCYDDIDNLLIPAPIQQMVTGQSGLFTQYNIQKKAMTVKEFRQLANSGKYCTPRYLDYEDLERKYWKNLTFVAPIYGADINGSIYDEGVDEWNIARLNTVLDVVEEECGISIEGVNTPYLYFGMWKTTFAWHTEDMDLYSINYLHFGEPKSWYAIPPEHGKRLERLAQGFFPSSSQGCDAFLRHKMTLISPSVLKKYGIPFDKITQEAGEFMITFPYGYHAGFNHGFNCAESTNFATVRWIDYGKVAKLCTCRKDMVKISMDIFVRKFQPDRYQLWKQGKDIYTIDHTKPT
The experiment is described as follows: Histone lysine demethylase AlphaLISA assay, GASC1. To be noted: substrate BK9M3. The procedure:
as §1, §2, §3
Background: In Alpha technology, singlet oxygen from a donor bead excites a nearby acceptor bead.

For experiment [3], the target named is T3, UTX (KDM6A) (Homo sapiens, UniProt O15550).
T3 construct: 919-1401; host or cells: E. coli
The experiment is described as follows: Histone lysine demethylase AlphaLISA assay, UTX. The note with it: substrate BK27M3. The procedure:
as §1, §2, §3

A value given as a limit tells only on which side of the number the result lay.

T3 sequence (O15550 919-1401): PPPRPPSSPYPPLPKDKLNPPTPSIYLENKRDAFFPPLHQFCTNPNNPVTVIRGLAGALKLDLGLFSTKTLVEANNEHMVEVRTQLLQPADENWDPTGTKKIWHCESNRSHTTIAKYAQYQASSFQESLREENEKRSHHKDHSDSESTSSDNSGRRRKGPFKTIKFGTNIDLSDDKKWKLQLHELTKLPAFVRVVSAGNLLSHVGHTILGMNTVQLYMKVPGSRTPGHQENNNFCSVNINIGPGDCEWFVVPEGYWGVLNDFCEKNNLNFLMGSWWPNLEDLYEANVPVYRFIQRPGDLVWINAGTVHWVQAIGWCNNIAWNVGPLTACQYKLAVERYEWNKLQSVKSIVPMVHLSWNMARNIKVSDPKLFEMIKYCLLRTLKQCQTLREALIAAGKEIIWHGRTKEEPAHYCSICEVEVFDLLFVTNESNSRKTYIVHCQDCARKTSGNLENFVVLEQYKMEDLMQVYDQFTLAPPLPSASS

With `CCN(CCN(C)C)C(=O)CNCc1cc(C(=O)Oc2ccc(C(C)(C)C)cc2)ccn1` [#61, 4-tert-butylphenyl 2-{[({[2-(dimethylamino)ethyl](ethyl)carbamoyl}methyl)amino]methyl}pyridine-4-carboxylate], the IC50 in experiment [1] and in experiment [2] was less than 100 nM in each case.

Take `CCN(CCN(C)C)C(=O)CNCc1cc(C(=O)Oc2ccc(OC)cc2)ccn1` [#58, 4-methoxyphenyl 2-{[({[2-(dimethylamino)ethyl](ethyl)carbamoyl}methyl)amino]methyl}pyridine-4-carboxylate]: the IC50 is no less than 1000 nM in experiment [3], less than 100 nM in experiment [1] and 100 to 1000 nM in experiment [2].

On to `CCN(CCN(C)C)C(=O)CNCc1cc(C(=O)Nc2ncco2)ccn1` [#84, 2-{[({[2-(dimethylamino)ethyl](ethyl)carbamoyl}methyl)amino]methyl}-N-(1,3-oxazol-2-yl)pyridine-4-carboxamide], for which the half-inhibitory concentration (IC50) in experiment [1] and in experiment [2] was less than 100 nM in each case.

In the case of `CN(CCC(N)=O)C(=O)CNCc1cc(C(=O)O)ccn1` [#23, 2-[({[(2-carbamoylethyl)(methyl)carbamoyl]methyl}amino)methyl]pyridine-4-carboxylic acid], the IC50 in experiment [3] was no less than 1000 nM; in experiment [1], less than 100 nM; in experiment [2], less than 100 nM.

With `C=CCN(CC=C)C(=O)CNCc1cc(C(=O)O)ccn1` [#17, 2-[({[bis(prop-2-en-1-yl)carbamoyl]methyl}amino)methyl]pyridine-4-carboxylic acid], the half-maximal inhibitory concentration (IC50) in experiment [3] was no less than 1000 nM; in experiment [1] it was less than 100 nM; in experiment [2], less than 100 nM.

As for `O=C(CNCc1cc(C(=O)O)ccn1)NC1CCN(Cc2ccc(-c3ccccc3)o2)CC1` [#32, 2-({[({1-[(5-phenylfuran-2-yl)methyl]piperidin-4-yl}carbamoyl)methyl]amino}methyl)pyridine-4-carboxylic acid], the half-inhibitory concentration (IC50) is no less than 1000 nM in experiment [3], less than 100 nM in experiment [1] and less than 100 nM in experiment [2].

Turning to `COC(=O)c1ccnc(CNCCCN2CCCC2)c1` [#47, methyl 2-({[3-(pyrrolidin-1-yl)propyl]amino}methyl)pyridine-4-carboxylate], the IC50 in experiment [1] was 100 to 1000 nM; in experiment [2], no less than 1000 nM.

Consider `CN(CCCc1nccn1C)C(=O)CNCc1cc(C(=O)O)ccn1` [#25, 2-{[({methyl[3-(1-methyl-1H-imidazol-2-yl)propyl]carbamoyl}methyl)amino]methyl}pyridine-4-carboxylic acid], for which the IC50 in experiment [3] was no less than 1000 nM; in experiment [1], less than 100 nM; in experiment [2], less than 100 nM.

Regarding `CCN(CC)CCCCNCc1cc(C(=O)Oc2c(C)cccc2C)ccn1` [#57, 2,6-dimethylphenyl 2-({[4-(diethylamino)butyl]amino}methyl)pyridine-4-carboxylate], the IC50 in experiment [3] was no less than 1000 nM; in experiment [1], less than 100 nM; in experiment [2], no less than 1000 nM.

With `O=C(O)c1ccnc(CNCCF)c1` [#8, 2-{[(2-fluoroethyl)amino]methyl}pyridine-4-carboxylic acid], the concentration for half-maximal inhibition (IC50) in experiment [3] is no less than 1000 nM; in experiment [1], 100 to 1000 nM; in experiment [2] it was 100 to 1000 nM.

Regarding `O=C(O)c1ccnc(CNCC(=O)N2CCCCC2CO)c1` (stereo not drawn) [#24, 2-[({2-[2-(hydroxymethyl)piperidin-1-yl]-2-oxoethyl}amino)methyl]pyridine-4-carboxylic acid], the 50% inhibitory concentration (IC50) in experiment [3] was no less than 1000 nM; in experiment [1], less than 100 nM; in experiment [2] it was less than 100 nM.

On to `O=C(O)c1ccnc(CNC[C@@H](O)CO)c1` [#3, 2-({[(2R)-2,3-dihydroxypropyl]amino}methyl)pyridine-4-carboxylic acid], for which the IC50 is no less than 1000 nM in experiment [3], less than 100 nM in experiment [1] and 100 to 1000 nM in experiment [2].

On to `CCN(CCN(C)C)C(=O)CNCc1cc(C(=O)Nc2nnc(C)o2)ccn1` [#76, 2-{[({[2-(dimethylamino)ethyl](ethyl)carbamoyl}methyl)amino]methyl}-N-(5-methyl-1,3,4-oxadiazol-2-yl)pyridine-4-carboxamide], for which the half-inhibitory concentration (IC50) in experiment [1] and in experiment [2] was less than 100 nM in each case.

Regarding `O=C(O)c1ccnc(CN2CCCCC2)c1` [#78, 2-(piperidin-1-ylmethyl)pyridine-4-carboxylic acid], the half-inhibitory concentration (IC50) in experiment [1] and in experiment [2] was no less than 1000 nM throughout.

As for `CCN(CCN(C)C)C(=O)CNCc1cc(C(=O)OC(CNC(=O)C(F)(F)F)CC(=O)OC(C)C)ccn1` (stereo not drawn) [#73, propan-2-yl 3-(2-{[({[2-(dimethylamino)ethyl](ethyl)carbamoyl}methyl)amino]methyl}pyridine-4-carbonyloxy)-4-(trifluoroacetamido)butanoate], the IC50 in experiment [1] and in experiment [2] was 100 to 1000 nM in each case.

For the compound `CCN(CCN(C)C)C(=O)CNCc1cc(C(=O)OC(C)CCNC(=O)C(F)(F)F)ccn1` (stereo not drawn) [#63, 4-(trifluoroacetamido)butan-2-yl 2-{[({[2-(dimethylamino)ethyl](ethyl)carbamoyl}methyl)amino]methyl}pyridine-4-carboxylate], the half-maximal inhibitory concentration (IC50) in experiment [1] and in experiment [2] was 100 to 1000 nM throughout.

In the case of `CC(C)C[C@@H](C(=O)N1CCCCC1)N(C)Cc1cc(C(=O)O)ccn1` [#93, 2-({methyl[(2S)-4-methyl-1-oxo-1-(piperidin-1-yl)pentan-2-yl]amino}methyl)pyridine-4-carboxylic acid], the half-maximal inhibitory concentration (IC50) in experiment [1] and in experiment [2] was no less than 1000 nM each time.

On to `CCN(CCN(C)C)C(=O)CNCc1cc(C(=O)OC(CCNC(=O)C(F)(F)F)CC(=O)OC(C)C)ccn1` (stereo not drawn) [#74, propan-2-yl 3-(2-{[({[2-(dimethylamino)ethyl](ethyl)carbamoyl}methyl)amino]methyl}pyridine-4-carbonyloxy)-5-(trifluoroacetamido)pentanoate], for which the IC50 in experiment [1] was less than 100 nM; in experiment [2], 100 to 1000 nM.

On to `CCN(CCN(C)C)C(=O)CNCc1cc(C(=O)Nc2ccnn2C)ccn1` [#77, 2-{[({[2-(dimethylamino)ethyl](ethyl)carbamoyl}methyl)amino]methyl}-N-(1-methyl-1H-pyrazol-5-yl)pyridine-4-carboxamide], for which the 50% inhibitory concentration (IC50) in experiment [1] and in experiment [2] was less than 100 nM throughout.

For the compound `O=C(O)c1ccnc(CNCc2ccco2)c1` [#9, 2-{[(furan-2-ylmethyl)amino]methyl}pyridine-4-carboxylic acid], the IC50 was no less than 1000 nM in experiment [3] and less than 100 nM in experiment [2].

Take `CCN(CCN(C)C)C(=O)CNCc1cc(C(=O)OC(C)CC(C)=O)ccn1` (stereo not drawn) [#62, 4-oxopentan-2-yl 2-{[({[2-(dimethylamino)ethyl](ethyl)carbamoyl}methyl)amino]methyl}pyridine-4-carboxylate]: the IC50 in experiment [1] and in experiment [2] was less than 100 nM throughout.

On to `CCN(CCN(C)C)C(=O)CNCc1cc(C(=O)Nc2ccncc2)ccn1` [#75, 2-{[({[2-(dimethylamino)ethyl](ethyl)carbamoyl}methyl)amino]methyl}-N-(pyridin-4-yl)pyridine-4-carboxamide], for which the figures for the 50% inhibitory concentration (IC50) in experiment [1] and in experiment [2] were less than 100 nM and 100 to 1000 nM, respectively.

As to `CN(C)CCN(C)Cc1cc(C(=O)O)ccn1` [#6, 2-({[2-(dimethylamino)ethyl](methyl)amino}methyl)pyridine-4-carboxylic acid], the half-inhibitory concentration (IC50) in experiment [3] is no less than 1000 nM; in experiment [1], 100 to 1000 nM.

For `CCN(CCN(C)C)C(=O)CNCc1cc(C(=O)Oc2c(OC(C)C)cccc2OC(C)C)ccn1` [#85, 2,6-bis(propan-2-yloxy)phenyl 2-{[({[2-(dimethylamino)ethyl](ethyl)carbamoyl}methyl)amino]methyl}pyridine-4-carboxylate], the 50% inhibitory concentration (IC50) in experiment [1] and in experiment [2] was 100 to 1000 nM throughout.
